Source: patent EP3117830A1, “ANTIBACTERIAL PEPTIDES, AND USES THEREOF” (Nuritas Limited, priority 2015, dated 2017)
Read-outs that look alike come from different tables or passages of the source. No end group written: not given here.

How the values were obtained:
E. coli ATCC 25922 [1] = assay: microbe, parasite or virus in culture; conditions: Escherichia coli
MRSA ATCC 43300 = assay: microbe, parasite or virus in culture; conditions: Staphylococcus aureus, ATCC43300|MRSA
A. baumannii ATCC 19606 = assay: microbe, parasite or virus in culture; conditions: Acinetobacter baumannii
E. coli ATCC 25922 [2] = assay type: cell-based
Source text: Antibacterial activity testing (in solid media).

O=C(O)c1cn(C2CC2)c2cc(N3CCNCC3)c(F)cc2c1=O [CIP, Ciprofloxacin]
zone of inhibition at 64 µg/mL (E. coli ATCC 25922 [1]; ATCC25922, read-out: Inhibition zone diameter (mm) E. coli ATCC 25922 Rep 1): 42 mm
zone of inhibition at 64 µg/mL (E. coli ATCC 25922 [1]; ATCC25922, read-out: Inhibition zone diameter (mm) E. coli ATCC 25922 Rep 2): 40 mm
zone of inhibition at 64 µg/mL (E. coli ATCC 25922 [1]; ATCC25922, read-out: Inhibition zone diameter (mm) E. coli ATCC 25922 Rep 3): 42 mm
zone of inhibition at 64 µg/mL (MRSA ATCC 43300; read-out: Inhibition zone diameter (mm) MRSA ATCC 43300 Rep 1): 27 mm
zone of inhibition at 64 µg/mL (MRSA ATCC 43300; read-out: Inhibition zone diameter (mm) MRSA ATCC 43300 Rep 2): 28 mm
zone of inhibition at 64 µg/mL (MRSA ATCC 43300; read-out: Inhibition zone diameter (mm) MRSA ATCC 43300 Rep 3): 29 mm
zone of inhibition at 64 µg/mL (A. baumannii ATCC 19606; ATCC19606, read-out: Inhibition zone diameter (mm) A. baumannii ATCC 19606 Rep 1): 27 mm
zone of inhibition at 64 µg/mL (A. baumannii ATCC 19606; ATCC19606, read-out: Inhibition zone diameter (mm) A. baumannii ATCC 19606 Rep 2): 28 mm
zone of inhibition at 64 µg/mL (A. baumannii ATCC 19606; ATCC19606, read-out: Inhibition zone diameter (mm) A. baumannii ATCC 19606 Rep 3): 27 mm

LNSQKFPILNLVQLSATR [I_87_SF]
inhibition zone (E. coli ATCC 25922 [2]): 9-10 mm
